Results: patent US20180325914A1, “INCREASING STORAGE OF VITAMIN A, VITAMIN D AND/OR LIPIDS” (Salk Institute for Biological Studies, priority 2014, published 2018)

Test system: p53 2.1.1 cell line in FVB/n hosts
Test: Orthotopic allograft of p53 2.1.1 pancreatic cancer cells
Format: in vivo, mouse
Procedure: The p53 2.1.1 cell line, a luciferase-expressing cell line derived from autochthonous pancreatic cancer in pure FVB/n mice, was used for orthotopic transplantation into pancreata of immune-competent FVB/n hosts. Cells were resuspended in 50% DMEM+10% FBS, 50% Matrigel and 1,000 cells per mouse were injected into the body of the pancreas. One week after transplantation, transplanted mice were subject to bioluminescence imaging to measure luciferase activity and, thus, tumor burden. […] Mice were imaged again to measure bioluminescence signal (tumor burden) at experimental endpoint; pancreata were removed, weighed, and fixed or flash-frozen for further analysis.

[1] = 75 mg/kg JQ1 i.p. daily for 14 days
[2] = 75 mg/kg JQ1 i.p. daily for 14 days vs vehicle

Cc1sc2c(c1C)C(c1ccc(Cl)cc1)=N[C@@H](CC(=O)OC(C)(C)C)c1nnc(C)n1-2 [JQ1, (S)-tert-butyl 2-(4-(4-chlorophenyl)-2,3,9-trimethyl-6H-thieno[3,2-f][1,2,4]triazolo[4,3-a][1,4]diazepin-6-yl)acetate]
BLI and pancreas weight [1]: significantly reduced
number of phospho-H3+ tumor cells, and number of CD45 and DAPI containing cells [1]: significantly reduced
decrease in cell proliferation (phospho-H3+) [2]: about 50%
decrease in leukocyte recruitment (CD45) [2]: about 70%
decrease in luciferase light units (tumor cell count, tumor burden) [2]: about 33%
